The source of these data is patent US20150283159A1, “ANTICANCER AGENT, AND COMBINATION USE ANTICANCER AGENT” (Microbial Chemistry Research Foundation, priority 2012, published 2015).

Converted amounts (≈) assume the structure as drawn.

The test system of assay [1] is Human lung cancer NCI-H460 cells. Kind of assay: In vitro cell proliferation suppressive activity (MTT method). The class given is cell-based. To be noted: 3 days culture; for IC50: Homo sapiens, 72 h, read-out: IC50 (concentration at which 50% of the cell proliferation was suppressed), NCI-H460 cells. The procedure:
(§1) Proliferation suppressive activities of ellagitannin against various kinds of cancer cell lines were measured in the following manner.
(§2) Each of the following cancer cell lines was placed in a 96-well plate at 5×10^3 cell/100 μL per well using a DMEM medium (product of NISSUI PHARMACEUTICAL CO., LTD.) containing FBS (product of Sigma-Aldrich Co.) in an amount of 10 liquid amount %, and was cultured for 24 hours at 37° C. in an atmosphere of 5% CO2, whereby the cells were allowed to adhere to the plate completely.
(§3) Each of the following ellagitannins was added thereto so as to have final concentrations of 100 μg/mL, 50 μg/mL, 25 μg/mL, 12.5 μg/mL, 6.25 μg/mL, 3.13 μg/mL, 1.56 μg/mL, and 0.78 μg/mL, followed by culturing for 3 days at 37° C. in an atomosphere of 5% CO2.
(§4) In addition, as comparative controls, the 96-well plates to which the cancer cells had been allowed to adhere were cultured for 3 days at 37° C. in an atomosphere of 5% CO2 without addition of ellagitannin.
(§5) After the culturing for 3 days, cell proliferation was measured using the MTT method. The MTT method was performed as follows. Specifically, 10 μL of an MTT solution (a PBS solution containing MTT (3-(4,5-dimethylthiazol-2-yl)-2,5-diphenyltetrazolium bromide) at a concentration of 5 mg/mL) was added to each well and cultured for 4 hours. The formed formazan products were dissolved by adding 100 μL of a 20% SDS solution to each well, and measured for absorbance at 570 nm using LABSYSTEMS MULTISCAN MS (product of DS Pharma Biomedical Co., Ltd.).
(§6) The absorbance of the system involving the addition of the ellagitannin was indicated as “A” and the absorbance of the system of the comparative controls was indicated as “B”, and cell proliferation inhibitory rate (%) was calculated from the following formula (1).
(§7) Cell proliferation inhibitory rate(%)={(B−A)/B}×100 Formula (1)
(§8) Next, the cell proliferation inhibitory rate was used to determine a concentration at which 50% of the cell proliferation was suppressed (IC50 value).

In assay [2] the test system is Human osteosarcoma SJSA-1 cells. Described as above. The following applies: 3 days culture; for IC50: Homo sapiens, 72 h, read-out: IC50 (concentration at which 50% of the cell proliferation was suppressed), SJSA-1 cells. Type of assay: cell-based. The procedure: as §1, §2, §3, §4, §5, §6, §7, §8
The subject of assay [3] is human osteosarcoma SJSA-1 cells. Kind of assay: Antitumor activity-2 in cancer cell-transplanted mice (Test Example 2-2). The class given is in vivo, mouse. To be noted: nude mice transplanted with SJSA-1 cells; 12.5, 6.25 or 3.13 mg/kg, tail vein, twice a week; FIG. 3. From the text:
Eugeniin (product of […] Science Co., Ltd.) was used as the ellagitannin and was studied for antitumor activity in the following manner.

Assay [4] deals with human lung cancer NCI-H460 cells. Kind of assay: Antitumor activity-1 in cancer cell-transplanted mice (Test Example 2-1). The class given is in vivo, mouse. The following applies: nude mice transplanted with NCI-H460 cells; 12.5 mg/kg, tail vein, twice a week from one week after transplantation; FIG. 2. The procedure:
(§9) The antitumor effect of the geraniin was evaluated by observing the proliferation state of the tumor after the transplantation of the cells. Specifically, a longer diameter and a shorter diameter of each tumor were meatured with a caliper, and a tumor volume was measured from the following formula (2). Its average and standard deviation were obtained to determine the effect in the geraniin-administration groups in comparison to the comparative control groups.
(§10) Tumore volume=longer diameter×(shorter diameter)^2÷2 Formula (2)

Assay [5] deals with human osteosarcoma SJSA-1 cells. The assay is described as above. Type of assay: in vivo, mouse. To be noted: nude mice transplanted with SJSA-1 cells; 12.5 mg/kg, tail vein, twice a week from one week after transplantation; FIG. 1. As to the method:
as §9, §10

With casuarictin, the “IC50 (concentration at which 50% of the cell proliferation was suppressed), NCI-H460 cells” value in assay [1] came out at 35 µg/mL. Moreover, in assay [2], the “IC50 (concentration at which 50% of the cell proliferation was suppressed), SJSA-1 cells” value was 61 µg/mL.

Take `O=C(O[C@@H]1O[C@@H]2COC(=O)c3cc(O)c(O)c(O)c3-c3c(cc(O)c(O)c3O)C(=O)O[C@H]2[C@H](OC(=O)c2cc(O)c(O)c(O)c2)[C@H]1OC(=O)c1cc(O)c(O)c(O)c1)c1cc(O)c(O)c(O)c1` [Eugeniin, eugeniin]: in assay [3], the “tumor volume compared with the comparative control group (Saline)” value is on record as “significantly smaller”. The IC50 in assay [1] came to 5.6 µg/mL (≈ 5.97 µM); in assay [2], 18 µg/mL (≈ 19.2 µM).

As to `O=C(OC1OC2COC(=O)c3cc(O)c(O)c(O)c3-c3c(cc(O)c(O)c3O)C(=O)OC2C(OC(=O)c2cc(O)c(O)c(O)c2)C1O)c1cc(O)c(O)c(O)c1` (stereo not drawn) [1,3-di-O-galloyl-4,6-O-hexahydroxydiphenoyl glucose], the results for the IC50 in assay [1] and in assay [2] were 11 µg/mL (≈ 14 µM) and 41 µg/mL (≈ 52.1 µM), respectively.

Take `O=C1O[C@H]2[C@@H]3OC(=O)c4cc(O)c(O)c(O)c4-c4c(cc(O)c(O)c4O)C(=O)OC[C@H]2O[C@@H](OC(=O)c2cc(O)c(O)c(O)c2)[C@@H]3OC(=O)c2cc(O)c(O)c3c2[C@@H]2C1=CC(=O)[C@](O)(O3)C2(O)O` [Geraniin, geraniin]: the “tumor volume compared with the comparative control group (Saline)” value in assay [4] and in assay [5] was “significantly smaller” throughout. In addition, the IC50 in assay [1] amounted to 40 µg/mL (≈ 42 µM); in assay [2], 100 µg/mL (≈ 105 µM).

Consider `O=C(OC1C(O)OC2COC(=O)c3cc(O)c(O)c(O)c3-c3c(cc(O)c(O)c3O)C(=O)OC2C1OC(=O)c1cc(O)c(O)c(O)c1)c1cc(O)c(O)c(O)c1` (stereo not drawn) [Tellimagrandin I, tellimagrandin I], for which the IC50 in assay [1] turned out to be 32 µg/mL (≈ 40.7 µM); in assay [2] it was 46 µg/mL (≈ 58.5 µM).

Turning to `O=C(OC1OC2COC(=O)c3cc(O)c(O)c(O)c3-c3c(cc(O)c(O)c3O)C(=O)OC2C(O)C1O)c1cc(O)c(O)c(O)c1` (stereo not drawn) [Strictinin, strictinin], the results for the IC50 in assay [1] and in assay [2] were 33 µg/mL (≈ 52 µM) and no less than 110 µg/mL, respectively.
